According to EP1863471B9, “USE OF ANGELIC ACID ESTERS AS AN ANTIPHLOGISTIC ACTIVE INGREDIENT AND ANTIPHLOGISTIC PREPARATIONS” (Miltitz Aromatics GmbH, priority 2005, dated 2006):
Like-named read-outs stand apart in the source and are kept apart here.

Tests used:
[1] = test system: Carrageenin-induzierten Rattenpfotenödem; conditions: literature values from V. Jakovlev et al., Journal of Medicinal Plant Research 35 (1979), 125-140, corresponding test conditions, cited from earlier work
[2] = test system: Carrageenin-induzierten Rattenpfotenödem; assay: Carrageenin-induced rat paw oedema, oral administration of test substance; type: in vivo, Ratte; conditions: for ED50: oral administration, calculated from dose-dependent percent inhibition of oedema development, own tests
Source text: Die antiinflammatorische Wirkung von Isobutylangelat wurde am Carrageenin-induzierten ([…]) Rattenpfotenödem getestet. Isobutylangelat wurde oral verabreicht.
Die Testbedingungen entsprachen den in der Literatur verwendeten, so dass Quervergleiche hergestellt werden konnten. (V. Jakovlev et al. in Journal of Medicinal Plant Research 35 (1979), 125-140).
Als Vergleichssubstanz in den eigenen Tests diente (-)-alpha-Bisabolol. Dosisabhängig wurde die prozentuale Hemmung der Ödementwichlung bestimmt. Daraus ließ sich der ED50 Wert errechnen.
Dosierungen von 100, 464, 1000 und 2150 mg Isobutylangelat/kg Körpergewicht wurden getestet. Die Ergebnisse wurden mit den für eine Kontrollgruppe (0,8 % Hydroxypropylmethylcellulose Gel) und zusätzlich den für die positive Kontrolle ((-)-alpha- Bisabolol) erhaltenen Werten verglichen.

SMILES	ED50 [1]	other results
CC(C)=CCC[C@@](C)(O)[C@H]1CC=C(C)CC1 [(+) alpha Bisabolol]	> 2000 mg/kg	–
CC(C)=CCC[C@](C)(O)[C@@H]1CC=C(C)CC1 [(-)-alpha-Bisabolol]	–	ED50 [2]: 1540 mg/kg; ED50 ([1]; listed as (-) alpha Bisabolol): 1465 mg/kg
CC1=CCC(C2(C)CCC(O)C(C)(C)O2)CC1 (stereo not drawn) [Bisabololoxid A]	3164 mg/kg	–
CC1=CCC(C2(C)CCC(C(C)(C)O)O2)CC1 (stereo not drawn) [Bisabololoxid B]	> 2000 mg/kg	–
CC1=CC[C@@H]([C@]2(C)CCC(=O)C(C)(C)O2)CC1 [Bisabolonoxid]	> 2000 mg/kg	–
CC(C)=CCC[C@](C)(O)[C@@H]1CC=C(C)CC1 [Dragosantol]	> 3000 mg/kg	–
C/C=C(/C)C(=O)OCC(C)C [Isobutylangelat]	–	ED50 [2]: 2310 mg/kg; minimal effective dose ([2]; oral, doses tested 100, 464, 1000 and 2150 mg/kg body weight, read-out: dosisabhängige antiinflammatorische Wirkung, beginnend bei): ≥ 100 mg/kg
